{
  "source": "paper PMC8908504",
  "about": "(ACS Omega, 2022)",
  "key": {"KV7.2/3 channel [1]": {"target": "T1, KV7.2/3 channel (Homo sapiens, UniProt O43525+O43526)", "T1 sequence (O43526 whole entry)": "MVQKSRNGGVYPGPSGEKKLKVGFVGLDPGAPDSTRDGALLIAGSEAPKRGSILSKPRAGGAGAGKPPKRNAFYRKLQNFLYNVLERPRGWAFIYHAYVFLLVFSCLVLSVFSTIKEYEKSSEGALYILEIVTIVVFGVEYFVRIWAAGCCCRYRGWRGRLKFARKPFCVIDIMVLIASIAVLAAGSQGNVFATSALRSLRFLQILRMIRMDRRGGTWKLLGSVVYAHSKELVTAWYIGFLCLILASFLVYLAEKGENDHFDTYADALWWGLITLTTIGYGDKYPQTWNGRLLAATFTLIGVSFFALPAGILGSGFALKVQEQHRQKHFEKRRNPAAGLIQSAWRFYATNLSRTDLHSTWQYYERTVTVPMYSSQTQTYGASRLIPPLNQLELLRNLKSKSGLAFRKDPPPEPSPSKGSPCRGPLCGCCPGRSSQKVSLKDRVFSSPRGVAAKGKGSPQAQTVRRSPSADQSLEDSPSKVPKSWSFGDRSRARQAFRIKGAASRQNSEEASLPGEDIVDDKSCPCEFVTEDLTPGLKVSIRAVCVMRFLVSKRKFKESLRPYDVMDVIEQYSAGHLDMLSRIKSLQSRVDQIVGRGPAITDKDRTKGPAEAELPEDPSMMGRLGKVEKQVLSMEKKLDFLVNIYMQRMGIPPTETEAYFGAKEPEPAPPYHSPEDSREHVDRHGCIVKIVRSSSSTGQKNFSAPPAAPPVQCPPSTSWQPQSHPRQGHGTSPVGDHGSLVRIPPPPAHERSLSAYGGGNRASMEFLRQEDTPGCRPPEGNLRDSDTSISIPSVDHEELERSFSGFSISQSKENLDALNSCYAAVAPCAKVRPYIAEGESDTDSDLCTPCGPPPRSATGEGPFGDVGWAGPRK", "T1 sequence (O43525 whole entry)": "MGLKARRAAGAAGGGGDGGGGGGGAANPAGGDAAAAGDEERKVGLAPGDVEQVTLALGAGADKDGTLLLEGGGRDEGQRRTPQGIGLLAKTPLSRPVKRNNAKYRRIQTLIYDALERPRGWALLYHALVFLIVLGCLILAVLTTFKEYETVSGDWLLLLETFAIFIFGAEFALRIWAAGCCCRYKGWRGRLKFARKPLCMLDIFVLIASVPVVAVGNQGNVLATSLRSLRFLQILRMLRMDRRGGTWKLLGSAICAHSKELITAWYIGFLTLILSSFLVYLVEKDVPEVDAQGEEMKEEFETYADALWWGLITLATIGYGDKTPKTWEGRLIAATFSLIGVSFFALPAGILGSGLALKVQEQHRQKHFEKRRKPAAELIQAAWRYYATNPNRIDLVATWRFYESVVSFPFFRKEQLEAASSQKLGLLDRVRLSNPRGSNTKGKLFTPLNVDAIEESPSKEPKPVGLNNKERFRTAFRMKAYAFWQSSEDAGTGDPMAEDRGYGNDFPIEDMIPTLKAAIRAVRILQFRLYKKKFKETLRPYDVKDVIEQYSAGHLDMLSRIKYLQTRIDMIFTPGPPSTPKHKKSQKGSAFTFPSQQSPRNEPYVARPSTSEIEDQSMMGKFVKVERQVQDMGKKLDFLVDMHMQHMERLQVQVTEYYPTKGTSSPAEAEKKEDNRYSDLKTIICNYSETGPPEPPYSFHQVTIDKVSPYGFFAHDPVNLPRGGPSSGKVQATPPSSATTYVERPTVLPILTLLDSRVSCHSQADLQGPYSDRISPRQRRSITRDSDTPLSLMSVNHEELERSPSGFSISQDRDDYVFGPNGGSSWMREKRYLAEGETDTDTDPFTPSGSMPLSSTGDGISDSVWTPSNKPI", "experiment": "KV7.2/3 channel opening assay (thallium-sensitive fluorescence)", "assay_type": "cell-based", "details": "for potency relative to flupirtine: KV7.2/3 opening, EC50 compared with flupirtine", "experimental": "To evaluate the biological activity, the synthesized analogues were tested on HEK293 cells overexpressing the KV7.2/3 channel. The measurement was carried out in a fluorescence-based assay in which a thallium-sensitive dye generated the fluorescence signal. Due to its similarity to potassium, thallium can also pass through KV7 channels. The intensity of the fluorescence signal correlates with the amount of intracellular thallium and thus with the ability of the compounds to open KV7 channels. To determine the potency, the fluorescence intensity was measured as a function of the compound concentration. The efficacy was determined relative to the maximum fluorescence signal induced by flupirtine. For a summary of the activity data, see Table 2.\nThe cell culture of the KV7.2/3 transfected HEK293 cells (HEK293 KCNQ2/3 cells from SB Drug Discovery, Glasgow, UK) used for the assay and the processing of the obtained data were performed as described in earlier work.[27],[29] Briefly, 60,000 cells/well were seeded into 96-well microtiter plates for fluorescence-based assays (4titude Vision Plate Black 96-Well microtiter plates from ThermoScientic) and incubated for 24 h. After incubation, the medium was changed to 200 μL/well loading buffer containing 5 mmol/L probenecid and incubated for 1 h at room temperature. Subsequently, the test compounds dissolved in DMSO were added to the wells to the desired concentrations and further incubated for 30 min. As a control, the loading buffer with a DMSO concentration corresponding to the substance samples (1% (V/V)) was used. Fluorescence measurements were performed on the Infinite F200 Pro plate reader (Tecan) set at […]/emission wavelengths of 485 and 535 nm, respectively. After measuring the background fluorescence (baseline) for 20 s, a stimulus buffer (25 mmol/L K^+, 15 mmol/L Tl^+) was added just before the fluorescence of each well was measured.\nThe calculations to obtain dose–response curves were performed in the same manner as in previous investigations.[27],[29] Briefly, the fluorescence intensity was normalized with the baseline signal (F/F0) at each time of signal acquisition. To obtain the corrected negative control, a value of 1 was subtracted from the normalized value of the negative control. Subsequently, the value of the corrected negative control was subtracted from the maximum (corr. F/F0) value of a compound in a defined concentration (corr. ΔF/F0) and then plotted against the logarithmic concentration. The EC50 value was calculated as relative values with GraphPad Prism 6 (La Jolla, CA, USA), that is, the inflection points of the sigmoidal curves. The Emax value, the maximum response, indicates the intrinsic activity of a compound. This value was determined relative to flupirtine (1), where the maximum corr. ΔF/F0 value of flupirtine (1) was defined as 100%. The EC50 and Emax value of a compound is the mean of at least three independent experiments ± standard deviation (SD)."}, "[2]": {"experiment": "log D7.4 estimation by HPLC-based method", "assay_type": "physicochemical", "experimental": "The log D7.4 values were estimated using a common HPLC-based method in accordance with guideline OPPTS 830.7570 of the United States Environmental Protection Agency (EPA). The HPLC measurements were performed with a Phenomenex Luna 5 μm Phenyl-Hexyl 100 Å column (150 × 4.6 mm). […]. Uracil was used to measure the unretained peak time. To obtain a calibration function, the logarithm of the capacity factors for the reference substances was then plotted against the corresponding log P values taken from the mentioned guideline, which are equivalent to the log D7.4 values for non-ionizable compounds like the reference substances used for calibration. With this calibration function, it was possible to estimate the log D7.4 value from the corresponding retention time for each compound to be tested. For the measurement, 2 mg of the reference substances was each dissolved in 1 mL of methanol. A reference mixture was then obtained by combining 50 μL of each reference solution. The reference mixture was measured before and after the substances to be tested. The mean value from both measurements was used for the calibration line. The substances to be tested were injected as a solution in methanol (2 mg/mL), and the retention time was determined as the mean value from two measurements."}, "[3]": {"experiment": "Maximum concentration without precipitation in MTT assay buffer", "assay_type": "physicochemical", "description": "A limitation in the in vitro toxicity testing was the occasional poor water solubility of the analogues."}, "HEP-G2 cells [4]": {"test_system": "HEP-G2 cells", "experiment": "MTT cell viability assay, HEP-G2 cells", "details": "HEP-G2 cells, MTT assay, 24 h exposure; for LD25: 25% reduction of viability; for LD50: 50% reduction of viability", "source_text": "(§1) In addition to the activity, basic toxicological properties of the newly synthesized compounds were also investigated by using the 3-(4,5-dimethylthiazol-2-yl)-2,5-diphenyltetrazolium bromide (MTT) cell viability assay on mouse TAMH and human HEP-G2 hepatic cell lines (see Table 2). Both cell lines are established for the evaluation of hepatotoxicity.[42],[43]\n(§2) The culturing of the mouse liver TAMH and human liver cancer HEP-G2 cell lines and the MTT assay used to evaluate cell viability were carried out as previously described elsewhere in detail.[27],[29] […] The medium in the wells was then replaced with the medium containing the compounds. Control wells contained an equivalent number of cells and 1% (v/v) DMSO. Wells without cells were used to determine the background optical density (OD) and were treated as the control wells. After 24 or 48 h of incubation with the compound, the respective medium was replaced with a fresh medium supplemented with 10% (v/v) of a 2.5 mg/mL solution of MTT. The plates were incubated for 4 h. Then, the culture medium was carefully aspirated off and 50 μL of DMSO was added to each well to dissolve the formazan crystals. The ODs of each well were measured at λ = 570 nm with a SpectraMax 190 microplate reader.\n(§3) The calculated T/Ccorr. values were plotted against the log(concentration). The LD50 and LD25 values were determined by using GraphPad Prism 6. […] The values are given as the mean with SD of at least three independent experiments."}, "TAMH cells [5]": {"test_system": "TAMH cells", "experiment": "MTT cell viability assay, TAMH cells", "details": "TAMH cells, MTT assay, 24 h exposure; for LD25: 25% reduction of viability; for LD50: 50% reduction of viability", "source_text": "as §1, §2, §3"}, "[6]": {"set-up": "method as in guideline OPPTS 830.7570 (EPA)", "details": "reference substances for calibration; log P values; ref guideline OPPTS 830.7570 (EPA); cited from earlier work"}, "TAMH cells [7]": {"test_system": "TAMH cells", "details": "MTT assay, 24 h exposure; cited from earlier work"}, "KV7.2/3 channel [8]": {"target": "T1, KV7.2/3 channel", "details": "cited from earlier work"}, "HEP-G2 cells [9]": {"test_system": "HEP-G2 cells", "details": "MTT assay, 24 h exposure; cited from earlier work"}, "[10]": {"details": "HPLC, Phenomenex Luna 5 μm Phenyl-Hexyl column, pH 7.4, HPLC, mean of two calibrations, read-out: logD7.4 (mean)"}, "[11]": {"details": "HPLC, Phenomenex Luna 5 μm Phenyl-Hexyl column, pH 7.4, estimated by HPLC-based method, pH 7.4, read-out: log D7.4"}},
  "note": "“Also recorded” adds a separate entry of the source. Read-outs that look alike come from different tables or passages of the source. Marks after values point to notes of the source that are not given here.",
  "data": [
    {"compound": "COc1nc(NCc2ccc(F)cc2)cc(C)c1C(=O)NCc1ccc(F)cc1", "note": "[36b, N-(4-Fluorobenzyl)-6-[(4-fluorobenzyl)amino]-2-methoxy-4-methylnicotinamide]", "values": [
      {"measurement": "EC50", "setting": "KV7.2/3 channel [1]; HEK293 cells overexpressing KV7.2/3, concentration for half-maximal channel opening, mean ± SD, ≥3 determinations", "value": 310, "unit": "nM"},
      {"measurement": "efficacy", "setting": "KV7.2/3 channel [1]; HEK293 cells overexpressing KV7.2/3, relative to maximum signal of flupirtine (=100%)", "value": "105 ± 12", "unit": "%"},
      {"measurement": "potency relative to flupirtine", "setting": "KV7.2/3 channel [1]", "value": "about six times more potent than flupirtine; also recorded: six times as potent as flupirtine"},
      {"measurement": "potency relative to flupirtine", "setting": "KV7.2/3 channel [1]; listed as N-(4-fluorobenzyl)-6-[(4-fluorobenzyl)amino]-2-methoxy-4-methylnicotinamide", "value": "six times as active as flupirtine"},
      {"measurement": "chromatographic logD", "setting": "[2]; HPLC, Phenomenex Luna 5 μm Phenyl-Hexyl column, pH 7.4, HPLC, calibration A1, read-out: logD7.4", "value": 4.13},
      {"measurement": "chromatographic logD", "setting": "[2]; HPLC, Phenomenex Luna 5 μm Phenyl-Hexyl column, pH 7.4, HPLC, calibration B1, read-out: logD7.4", "value": 4.09},
      {"measurement": "chromatographic logD", "setting": "[2]; [10]", "value": 4.1},
      {"measurement": "chromatographic logD", "setting": "[2]; [11]", "value": 4.1},
      {"measurement": "maximum concentration achieved without precipitating", "setting": "[3]", "value": 63, "unit": "µM"},
      {"measurement": "LD25", "setting": "HEP-G2 cells [4]", "value": ">16", "unit": "µM"},
      {"measurement": "LD50", "setting": "HEP-G2 cells [4]", "value": ">16", "unit": "µM"},
      {"measurement": "LD25", "setting": "TAMH cells [5]", "value": ">63", "unit": "µM"},
      {"measurement": "LD50", "setting": "TAMH cells [5]", "value": ">63", "unit": "µM"}
    ]},
    {"compound": "c1ccc(N(c2ccccc2)c2ccccc2)cc1", "note": "[Triphenylamine]", "values": [
      {"measurement": "logD (Lit.)", "setting": "[6]", "value": 5.7}
    ]},
    {"compound": "CCOC(=O)Nc1ccc(NCc2ccc(F)cc2)cc1N", "note": "[compound 2, retigabine]", "values": [
      {"measurement": "chromatographic logD", "setting": "[2]; pH 7.4, HPLC, calibration C, read-out: logD7.4", "value": 2.05},
      {"measurement": "chromatographic logD", "setting": "[2]; pH 7.4, HPLC, calibration D, read-out: logD7.4", "value": 2.06},
      {"measurement": "chromatographic logD", "setting": "[2]; pH 7.4, HPLC, mean of two calibrations, read-out: logD7.4 (mean)", "value": 2.1},
      {"measurement": "chromatographic logD", "setting": "[2]; pH 7.4, estimated by HPLC-based method, pH 7.4, read-out: log D7.4", "value": 2.1},
      {"measurement": "LD50", "setting": "TAMH cells [7]", "value": ">400 ^f μM"},
      {"measurement": "EC50", "setting": "KV7.2/3 channel [8]; HEK293 cells overexpressing KV7.2/3, mean ± SD", "value": "147 ± 12", "unit": "nM"},
      {"measurement": "efficacy", "setting": "KV7.2/3 channel [8]; HEK293 cells overexpressing KV7.2/3, relative to flupirtine", "value": "134 ± 16 ^f %"},
      {"measurement": "LD25", "setting": "HEP-G2 cells [9]", "value": "269 ± 166 ^f μM"},
      {"measurement": "LD50", "setting": "HEP-G2 cells [9]", "value": ">400 ^f μM"}
    ]},
    {"compound": "Cc1cc(NCc2ccc(F)cc2)[nH]c(=O)c1C(=O)NCc1ccc(F)cc1", "note": "[compound 37, N-(4-Fluorobenzyl)-6-[(4-fluorobenzyl)amino]-4-methyl-2-oxo-1,2-dihydropyridine-3-carboxamide]", "values": [
      {"measurement": "melting point", "value": 196, "unit": "°C"}
    ]},
    {"compound": "O=C(Cc1cc(F)cc(F)c1)Nc1ccc(N2CCOCC2)nc1N1CCOCC1", "note": "[compound 49]", "values": [
      {"measurement": "EC50", "setting": "KV7.2/3 channel [8]; KV7.2/3, lead structure from previous work, read-out: EC50", "value": 11, "unit": "nM"}
    ]},
    {"compound": "Cc1cc(NCc2ccc(F)cc2)nc(N2CCOCC2)c1CNC(=O)OCC(C)C", "note": "[compound 66, Isobutyl ({6-[(4-Fluorobenzyl)amino]-4-methyl-2-morpholinopyridin-3-yl}methyl)carbamate]", "values": [
      {"measurement": "EC50", "setting": "KV7.2/3 channel [1]; HEK293 cells overexpressing KV7.2/3, footnote e", "value": "> 10000", "unit": "nM"},
      {"measurement": "KV7.2/3 channel opening activity (in words)", "setting": "KV7.2/3 channel [1]; inactive = no channel opening activity detected up to a concentration of 10 μM", "value": "inactive"},
      {"measurement": "chromatographic logD", "setting": "[2]; HPLC, Phenomenex Luna 5 μm Phenyl-Hexyl column, pH 7.4, HPLC, calibration A2, read-out: logD7.4", "value": 4.75},
      {"measurement": "chromatographic logD", "setting": "[2]; HPLC, Phenomenex Luna 5 μm Phenyl-Hexyl column, pH 7.4, HPLC, calibration B2, read-out: logD7.4", "value": 4.75},
      {"measurement": "chromatographic logD", "setting": "[2]; [10]", "value": 4.8},
      {"measurement": "chromatographic logD", "setting": "[2]; [11]", "value": 4.8},
      {"measurement": "LD25", "setting": "HEP-G2 cells [4]", "value": "24 ± 27", "unit": "µM"},
      {"measurement": "LD50", "setting": "HEP-G2 cells [4]", "value": ">125", "unit": "µM"},
      {"measurement": "LD25", "setting": "TAMH cells [5]", "value": "52 ± 61", "unit": "µM"},
      {"measurement": "LD50", "setting": "TAMH cells [5]", "value": ">125", "unit": "µM"}
    ]}
  ]
}
